Measured values: ChEMBL document CHEMBL2331401, “Orally active fumagillin analogues: transformations of a reactive warhead in the gastric environment” (ACS Med Chem Lett, 2013)
Calls of active or inactive are those of the source. The calls are words filed in the database; no cut-off is given here.

Columns and labels:
Rattus norvegicus [1] = experiment: Inhibition of MetAP2 in Sprague-Dawley rat assessed as free MetAP2 level in whole blood at 3 mg/kg, po after 2 to 4 hrs by ELISA relative to vehicle-treated control; assay type: functional, organism-based; parameters: dose 3 mg/kg
Rattus norvegicus [2] = experiment: Inhibition of MetAP2 in Sprague-Dawley rat assessed as free MetAP2 level in thymus at 3 mg/kg, po after 24 hrs by ELISA relative to vehicle-treated control; assay type: functional, organism-based; parameters: dose 3 mg/kg
Rattus norvegicus [3] = experiment: Inhibition of MetAP2 in Sprague-Dawley rat assessed as free MetAP2 level in liver at 3 mg/kg, po after 24 hrs by ELISA relative to vehicle-treated control; assay type: functional, organism-based; parameters: dose 3 mg/kg
[4] = target: Methionine aminopeptidase 2 (Homo sapiens) (UniProt P50579); experiment: Inhibition of MetAP2 (unknown origin) using Met-AMC as substrate in MES buffer at pH 6.5 at 200 nM after 8 hrs
[5] = target: Methionine aminopeptidase 2 (Homo sapiens) (UniProt P50579); experiment: Inhibition of MetAP2 (unknown origin) using Met-AMC as substrate in HEPES buffer at pH 7.5 at 200 nM after 8 hrs
HUVEC = experiment: Antiproliferative activity against human HUVEC cells after 3 days; assay type: functional, cell-based; settings: 72 h
[6] = target: Methionine aminopeptidase 2 (Homo sapiens) (UniProt P50579); experiment: Inhibition of MetAP2 (unknown origin) using Met-AMC as substrate assessed as residual activity at 200 nM after 8 hrs
Plasma = experiment: Drug metabolism in rat plasma assessed as PPI-2458 formation at 4 degC after 1 hr by HPLC/MS/MS analysis; assay type: ADME, cell-free
[7] = Stability of the compound in MES buffer at pH 6.5 after 8 hrs by LC-MS analysis; assay type: physicochemical; settings: pH 6.5, 8 h

Chain of Methionine aminopeptidase 2 (Homo sapiens) (P50579 2-478 limits assumed): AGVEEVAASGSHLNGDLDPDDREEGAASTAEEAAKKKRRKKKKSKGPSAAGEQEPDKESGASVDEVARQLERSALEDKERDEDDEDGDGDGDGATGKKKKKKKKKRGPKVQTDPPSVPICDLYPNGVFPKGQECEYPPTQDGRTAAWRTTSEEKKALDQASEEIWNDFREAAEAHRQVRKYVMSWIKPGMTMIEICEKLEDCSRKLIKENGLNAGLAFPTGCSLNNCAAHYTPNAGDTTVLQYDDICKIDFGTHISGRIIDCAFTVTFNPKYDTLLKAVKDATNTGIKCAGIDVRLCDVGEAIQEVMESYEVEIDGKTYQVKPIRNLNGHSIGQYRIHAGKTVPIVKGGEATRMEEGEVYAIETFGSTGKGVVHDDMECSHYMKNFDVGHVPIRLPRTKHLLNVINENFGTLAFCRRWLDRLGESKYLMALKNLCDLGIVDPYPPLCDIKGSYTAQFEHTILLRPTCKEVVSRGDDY

SMILES	inhibition [4]	inhibition [5]	Activity [6] [%]	Stability (Plasma)	Stability [7]	inhibition (Rattus norvegicus [1])	inhibition (Rattus norvegicus [2])	inhibition (Rattus norvegicus [3])	IC50 (HUVEC) [nM]
CO[C@H]1[C@@H]([C@@]2(C)O[C@@H]2CC=C(C)C)[C@]2(CC[C@H]1OC(=O)N[C@@H](C(N)=O)C(C)C)CO2	Active	Active	3			Active	Active	Active	0.18
C=C([C@H](O)CC=C(C)C)[C@H]1[C@H](OC)[C@H](OC(=O)N[C@@H](C(N)=O)C(C)C)CC[C@]12CO2			27			Active	Active	Active	3.1
CO[C@@H]1[C@H](OC(=O)N[C@@H](C(N)=O)C(C)C)CC[C@](O)(CCl)[C@H]1[C@@]1(C)O[C@@H]1CC=C(C)C	inactive	Active	6	Unstable	Stable	Active	Active	Active	0.15
C=C([C@H](O)CC=C(C)C)[C@H]1[C@H](OC)[C@H](OC(=O)N[C@@H](C(N)=O)C(C)C)CC[C@]1(O)CCl			58			Active	Active	Active	3.3

Now from value to compound, other results behind:

inhibition [4]	inhibition [5]	Activity [6] [%]	Stability (Plasma)	Stability [7]	SMILES	inhibition (Rattus norvegicus [1])	inhibition (Rattus norvegicus [2])	inhibition (Rattus norvegicus [3])	IC50 (HUVEC) [nM]
		105			CO[C@@H]1[C@H](OC(=O)N[C@@H](C(N)=O)C(C)C)CC[C@@]2(O)CO[C@](C)([C@H](O)CC=C(C)C)[C@@H]12	inactive	inactive	inactive	> 30000
		107			CO[C@@H]1[C@H](OC(=O)N[C@@H](C(N)=O)C(C)C)CC[C@]2(O)CO[C@](C)([C@H](O)CC=C(C)C)[C@@H]12	inactive	inactive	inactive	> 30000
